# Reference: patent publication EP4745124A1, “NAPHTHALIMIDE-BASED CORONAVIRUS PAPAIN-LIKE PROTEASE INHIBITOR” (Guangzhou National Laboratory, priority 2023, dated 2025)
# Target: T1, SARS-CoV-2 PL^Pro (Severe acute respiratory syndrome coronavirus 2, UniProt P0DTD1)
# T1 construct: SARS-CoV-2 PL^Pro catalytic domain (746-1060); made in house
# Assay: biochemical
# Conditions: not given
row,Structure (SMILES),IC50
1,"Cc1ccc(N2C3CCC2CNC3)cc1C(=O)NC1(c2ccc3c4c(cccc24)C(=O)N3C)CC1 [Compound P6, 5-(3,8-diazabicyclo[3.2.1]octan-8-yl)-2-methyl-N-(1-(1-methyl-2-oxo-1,2-dihydrobenzo[cd]indol-6-yl)cyclopropyl)ben zamide]",< 40 nM
2,"Cc1ccc(N2C3CCC2CN(C)C3)cc1C(=O)NC1(c2ccc3c4c(cccc24)C(=O)N3C)CC1 [Compound P8, 2-Methyl-N-(1-(1-methyl-2-oxo-1,2-dihydrobenzo[cd]indol-6-yl)cyclopropyl)-3-methyl-3,8-diazabicyclo[3.2.1]octan-8-yl benzamide]",100 to 1000 nM
3,"Cc1ccc(N2CCNC3(CC3)C2)cc1C(=O)NC1(c2ccc3c4c(cccc24)C(=O)N3C)CC1 [Compound P12, 2-Methyl-N-(1-(1-methyl-2-oxo-1,2-dihydrobenzo[cd]indol-6-yl)cyclopropyl)-5-(4,7-diazaspiro[2,5]octan-7-yl) benzamide]",40 to 100 nM
4,"Cc1ccc(N2CC3CC(C2)N3C)cc1C(=O)NC1(c2ccc3c4c(cccc24)C(=O)N3C(C)C)CC1 [Compound P21, N-(1-(1-isopropyl-2-oxo-1,2-dihydrobenzo[cd]indol-6-yl)cyclopropyl)-2-methyl-5-(6-methyl-3,6-diazabicyclo[3.1.1]heptan-3-yl)benzamide]",< 40 nM

# Same assay, conditions: SARS-CoV-2 PLPro catalytic domain (746-1060), 10 minutes pre-incubation; read-out: PLpro IC50
row,Structure (SMILES),IC50
1,"Cc1ccc(N2CCN(C)CC2)cc1C(=O)NC1(c2ccc3c4c(cccc24)C(=O)N3)CC1 [Compound P2, 2-Methyl-5-(4-methylpiperazin-1-yl)-N-(1-(2-oxo-1,2-dihydrobenzo[cd]indol-6-yl)cyclopropyl)benzamide]",40 to 100 nM
2,"Cc1ccc(C2CCNCC2)cc1C(=O)NC1(c2ccc3c4c(cccc24)C(=O)N3C)CC1 [Compound P4, 2-Methyl-N-(1-(1-methyl-2-oxo-1,2-dihydrobenzo[cd]indol-6-yl)cyclopropyl)-5-(piperidin-4-yl)benzamide]",40 to 100 nM
3,"Cc1ccc(N2CC3CNCC3C2)cc1C(=O)NC1(c2ccc3c4c(cccc24)C(=O)N3C)CC1 (centres unmarked) [Compound P9, 5-(hexahydropyrrolo[3,4-c]pyrrol-2(1H)-yl)-2-methyl-N-(1-(1-methyl-2-oxo-1,2-dihydrobenzo[cd]indol-6-yl)cyclopropyl)benzamide]",< 40 nM
4,"Cc1ccc(N2CCNCC2C)cc1C(=O)NC1(c2ccc3c4c(cccc24)C(=O)N3C)CC1 (centres unmarked) [Compound P10, 2-Methyl-N-(1-(1-methyl-2-oxo-1,2-dihydrobenzo[cd]indol-6-yl)cyclopropyl)-5-(2-methylpiperazin-1-yl)benzamide]",100 to 1000 nM
5,"Cc1ccc(N2CCC(N(C)C)CC2)cc1C(=O)NC1(c2ccc3c4c(cccc24)C(=O)N3C)CC1 [Compound P13, 5-(4-(Dimethylamino)piperidin-1-yl)-2-methyl-N-(1-(1-methyl-2-oxo-1,2-dihydrobenzo[cd]indol-6-yl)cyclopropyl)ben zamide]",100 to 1000 nM
6,"CCN1CCN(c2ccc(C)c(C(=O)NC3(c4ccc5c6c(cccc46)C(=O)N5C)CC3)c2)C[C@@H]1C [Compound P14, (S)-5-(4-ethyl-3-methylpiperazin-1-yl)-2-methyl-N-(1-(1-methyl-2-oxo-1,2-dihydrobenzo[cd]indol-6-yl)cyclopropyl)be nzamide]",< 40 nM
7,"Cc1ccc(-n2ccc(N(C)C)c2)cc1C(=O)NC1(c2ccc3c4c(cccc24)C(=O)N3C)CC1 [Compound P15, 5-(3-(dimethylamino)pyrrol-1-yl)-2-methyl-N-(1-(1-methyl-2-oxo-1,2-dihydrobenzo[cd]indol-6-yl)cyclopropyl)benzamide]",< 40 nM
8,"Cc1ccc(N2CC(N3C=CC(F)(F)C3)C2)cc1C(=O)NC1(c2ccc3c4c(cccc24)C(=O)N3C)CC1 [Compound P18, 5-(3-(3,3-difluoropyrrol-1-yl)azetidin-1-yl)-2-methyl-N-(1-(1-methyl-2-oxo-1,2-dihydrobenzo[cd]indol-6-yl)cyclopropyl)benzamide]",100 to 1000 nM
9,"Cc1ccc(N2C[C@H]3CN(C)C[C@H]32)cc1C(=O)NC1(c2ccc3c4c(cccc24)C(=O)N3C)CC1 [Compound P20, 2-Methyl-N-(1-(1-methyl-2-oxo-1,2-dihydrobenzo[cd]indol-6-yl)cyclopropyl)-5-((1R,5S)-3-methyl-3,6-diazabicyclo[3. 2.0]heptan-6-yl)benzamide]",100 to 1000 nM
10,"Cc1ccc(C2CCN(C)CC2)cc1C(=O)NC1(c2ccc3c4c(cccc24)C(=O)N3C)CC1 [Compound P22, 2-methyl-N-(1-(1-methyl-2-oxo-1,2-dihydrobenzo[cd]indol-6-yl)cyclopropyl)-5-(1-methylpiperidin-4-yl)benzamide]",40 to 100 nM
11,"Cc1ccc(N2CC(N3CCN(C)CC3)C2)cc1C(=O)NC1(c2ccc3c4c(cccc24)C(=O)N3C)CC1 [Compound P23, 2-Methyl-N-(1-(1-methyl-2-oxo-1,2-dihydrobenzo[cd]indol-6-yl)cyclopropyl)-5-(3-(4-methylpiperazin-1-yl)azetidin-1-yl)benzamide]",100 to 1000 nM
12,"Cc1ccc(N2CC(N3CCCCC3)C2)cc1C(=O)NC1(c2ccc3c4c(cccc24)C(=O)N3C)CC1 [Compound P24, 2-Methyl-N-(1-(1-methyl-2-oxo-1,2-dihydrobenzo[cd]indol-6-yl)cyclopropyl)-5-(3-(piperidin-1-yl)azetidin-1-yl)benzamide]",< 40 nM
13,"Cc1ccc(N2CCN3CCC[C@@H]3C2)cc1C(=O)NC1(c2ccc3c4c(cccc24)C(=O)N3C)CC1 [Compound P25, (R)-5-(hexahydropyrrolo[1,2-a]pyrazin-2(1H)-yl)-2-methyl-N-(1-(1-methyl-2-oxo-1,2-dihydrobenzo[cd]indol-6-yl)cyclopropyl)benzamide]",< 40 nM
14,"Cc1ccc(N2CC(N3CCC(F)CC3)C2)cc1C(=O)NC1(c2ccc3c4c(cccc24)C(=O)N3C)CC1 [Compound P26, 5-(3-(4-fluoropiperidin-1-yl)azetidin-1-yl)-2-methyl-N-(1-(1-methyl-2-oxo-1,2-dihydrobenzo[cd]indol-6-yl)cyclopropyl)benzamide]",< 40 nM
15,"CCN1C(=O)c2cccc3c(C4(NC(=O)c5cc(N6CCN(C)CC6)ccc5C)CC4)ccc1c23 [Compound P27, N-(1-(1-ethyl-2-oxo-1,2-dihydrobenzo[cd]indol-6-yl)cyclopropyl)-2-methyl-5-(4-methylpiperazin-1-yl)benzamide]",< 40 nM
16,"CCN1C(=O)c2cccc3c(C4(NC(=O)c5cc(N6CC(N7CCC(C)(O)CC7)C6)ccc5C)CC4)ccc1c23 [Compound P28, N-(1-(1-Ethyl-2-oxo-1,2-dihydrobenzo[cd]indol-6-yl)cyclopropyl)-5-(3-(4-hydroxy-4-methylpiperidin-1-yl)azetidin-1-yl)-2-methyl-benzamide]",< 40 nM
17,"Cc1ccc(N2CC(N3CCC(F)C3)C2)cc1C(=O)NC1(c2ccc3c4c(cccc24)C(=O)N3C)CC1 (centres unmarked) [Compound P30, 5-(3-(3-fluoropyrrolidin-1-yl)azetidin-1-yl)-2-methyl-N-(1-(1-methyl-2-oxo-1,2-dihydrobenzo[cd]indol-6-yl)cyclopropyl)benzamide]",< 40 nM

# Same assay, conditions: read-out: PLpro IC50
row,Structure (SMILES),IC50
1,Cc1ccc(N2CC3(CCN(C)C3)C2)cc1C(=O)NC1(c2ccc3c4c(cccc24)C(=O)N3C)CC1 [Compound P19],100 to 1000 nM
2,CCN1C(=O)c2cccc3c(C4(NC(=O)c5cc(N6CC7CC(C6)N7)ccc5C)CC4)ccc1c23 [Compound P29],< 40 nM
